One experiment deals with complementary peptide. Nature of the experiment: Isothermal titration calorimetry (ITC) of orthogonal CC peptide pairs. It is filed as binding. As to conditions: 50 mM Tris pH 7.5, 150 mM NaCl, 1 mM TCEP, uncertainty from Monte Carlo simulation of the fit. As for the experimental part: MicroCal PEAQ-ITC (Malvern) was used to measure the equilibrium dissociation constant (Kd) of orthogonal CC pairs. A 40-µl injection syringe was filled with the peptide solution (1 mM P5f, P13f; 5.6 mM S1h or 5.4 mM S3h) in 50 mM Tris pH of 7.5, 150 mM NaCl, and 1 mM TCEP. The samples were injected into an ITC cell (volume 200 µl) filled with a complementary peptide (100 µM P6f or P14f and 560 µM S2h or 540 µM S4h) in a matching buffer through a 19-step process. The injection volumes were 2 µl and were spaced 120 s apart, except for the first priming injection of 0.4 µl with 150 s spacing. Raw thermograms were integrated with the software NITPIC[83], interaction analysis was done with SEDPHAT[84], and titration curves were visualized with a companion GUSSI software. Monte Carlo simulation for non-linear regression, aligning the model function with experimental values 1000 times was used to obtain uncertainties in the fitted model.
Supplementary Figure 2: Binding analysis between the weak 3-heptad and strong 4-heptad CC forming segment using isothermal titration calorimetry (ITC). a) For peptide pair S1h + S2h peptide concentration in 40 µl injection syringe was 5.6 mM for S1h and concentration of complementary peptide S2h in ITC cell (volume 200 µl) was 560 […]
concentration in 40 µl injection syringe was 5.4 mM S3h and concentration of complementary peptide S4h in ITC cell (volume 200 µl) was 540 µM.
± 0.5 kcal/mol. For peptide pair c) P5f + P6f and d) P13f + P14f, which are 4-heptad CC.
Peptide concentration in 40 µl injection syringe was 1 mM for P5f and P13f and concentration […]
± 0.5 µM and ΔH -13.7 +- 0.6 kcal/mol and d) Kd 2.3 ± 0.2 µM and ΔH -14.7 ± 0.6 kcal/mol.
All the peptides were dissolved in a matching buffer 50 mM Tris pH of 7.5, 150 mM NaCl, […]
(1 picture or pasted object on this page, not shown here)

The test system of experiment [1] is FKBP/FRB. Nature of the experiment: Rapamycin-induced condensate assembly, split two-chain system with FKBP and FRB domains, NIH-3T3 cells. The class given is cell-based, H.sapiens. As to conditions: 1 μM rapamycin; NIH-3T3 cells expressing Cit(S1-S3)3-SAH, BFP(S2)3-gsFKBP and FRB(S4)3-gs; none with vehicle control. An excerpt:
(§1) Our final goal was to engineer new properties into condensates and to provide regulation of CC-LLPS assembly or disassembly. […] To introduce chemically regulated assembly, we incorporated FKBP into the first chain and FRB domain into the second chain of the split protein. Upon the addition of rapamycin, those two domains heterodimerize and thus extend the length of the polypeptide.
(§2) Fig. 6 Design of chemical regulation of CC-LLPS. a One polypeptide chain of a condensate-forming pair BFP-(S2)3(S4)3-gs, was separated into two chains, each with 3 CC domains BFP-(S2)3-gs and (S4)3-gs. […] Scale bars, 10 μm.

For experiment [2], the system named is FKBP/FRB. Nature of the experiment: Rapamycin-induced assembly of single-chain condensates from FKBP/FRB-fused APPAP halves, HEK293T cells. The class given is cell-based, H.sapiens. The note with it: 1 μM rapamycin; HEK293T cells expressing Cit-APPAP-gs-FKBP and FRB-APPAP-gs; none with DMSO even 1 hour post-addition.
From the text: as §1, §2

Experiment [3] deals with FKBP/FRB. The experiment is described as follows: Rapamycin-regulated split TEVp protease dissolution of condensates, HEK293T cells. It is filed as cell-based, H.sapiens. As to conditions: 1 μM rapamycin; HEK293T cells with TEVp site in one condensate-forming chain and rapamycin-regulated split TEVp.
From the text: as §2

The target in a further experiment is T1, P14f.
T1 chain: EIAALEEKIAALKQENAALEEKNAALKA
The experiment is described as follows: ITC; MicroCal PEAQ-ITC; syringe peptide (1 mM P5f, P13f; 5.6 mM S1h or 5.4 mM S3h) injected into the cell with the complementary peptide (100 µM P6f or P14f; 560 µM S2h or 540 µM S4h); 50 mM Tris pH 7.5, 150 mM NaCl, 1 mM TCEP; concentrations of the S peptides not stated. The note with it: both partners purified. Background: Isothermal titration calorimetry measures the heat released or taken up as one component is titrated into another.

For the next experiment, the target named is T2, P6f.
T2 chain: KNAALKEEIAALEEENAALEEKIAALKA
Described as above. As to conditions: both partners purified.

Another experiment deals with T3, S2h.
T3 chain: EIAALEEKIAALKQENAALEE
Described as above. The note with it: both partners purified.

The next experiment concerns the target T4, S4h.
T4 chain: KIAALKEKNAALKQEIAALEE
The description is as above. As to conditions: both partners purified.

Setting [4] is: 4-heptad pairs, 1 mM P5f or P13f in syringe into 100 µM P6f or P14f in cell.
[5] abbreviates: 3-heptad Sh pairs, 5.6 mM S1h or 5.4 mM S3h in syringe into 560 µM S2h or 540 µM S4h in cell.

No end group written: not given here.

Broadly, the Kd is a measure of binding affinity in units of concentration. A low value points to higher affinity. As to ENAALEEKIAALKEKNAALKEEIAALEA [P5f-P6f], the equilibrium dissociation constant (Kd) at complementary peptide (setting [4]) is 5.9 ± 0.5 µM.
On to EIAALEEENAALEQKIAALKE [S3h-S4h], for which, on complementary peptide (setting [5]), the Kd is 340 ± 70 µM.
Regarding `CO[C@H]1C[C@@H]2CC[C@@H](C)[C@@](O)(O2)C(=O)C(=O)N2CCCC[C@H]2C(=O)O[C@H]([C@H](C)C[C@@H]2CC[C@@H](O)[C@H](OC)C2)CC(=O)[C@H](C)/C=C(\C)[C@@H](O)[C@@H](OC)C(=O)[C@H](C)C[C@H](C)/C=C/C=C/C=C/1C` [rapamycin, Rapamycin], the “time after addition at which condensates started to form” value in the experiment on FKBP/FRB [1] is 20 min. In addition, the “condensate formation after addition (in words)” value in the experiment with FKBP/FRB [2] was “after a few minutes”. In addition, the “dissolution of condensates after addition (in words)” value in the experiment on FKBP/FRB [3] was “dissolution of condensates after a few minutes”.
At complementary peptide (setting [5]), KIAALKEEIAALEQKNAALKE [S1h-S2h] registered an equilibrium dissociation constant (Kd) of 2300 ± 1500 µM.
In turn, “KIAALKEEIAALEQKNAALKEENAALEA [P13f-P14f]” had a Kd at complementary peptide (setting [4]) of 2.3 ± 0.2 µM.
Regarding KIAALKEEIAALEQKNAALKEENAALEA [P13f], the equilibrium dissociation constant (Kd) with P14f amounted to 2.3 ± 0.2 µM.
Consider ENAALEEKIAALKEKNAALKEEIAALEA [P5f], for which the Kd with P6f was determined as 5.9 ± 0.5 µM.
In the experiment with S2h, KIAALKEEIAALEQKNAALKE [S1h] came in with a Kd of 2300 ± 1500 µM.
Turning to EIAALEEENAALEQKIAALKE [S3h], the affinity with S4h, expressed as Kd, was 340 ± 70 µM.

Source of the values: article PMC10693550, “Programmable de novo designed coiled coil-mediated phase separation in mammalian cells” (Nature Communications, 2023).
